Measured values as given in PubChem BioAssay AID330 (DTP/NCI, 2004).
Where “and” joins values, the source holds several entries; their conditions need not be identical. Equal values may be shown once. Inconclusive results and toxic doses are left out. How the source made its calls: active means survival T/C of 150% or more; inactive means T/C below 125% in these data.

System: P388 leukemia ip, CD2F1 mice, survival T/C
Assay: NCI In Vivo Anticancer Drug Screen. Data for tumor model P388 Leukemia (intraperitoneal) in CD2F1 (CDF1) mice
Conditions: endpoint: median survival time, higher = longer survival
Procedure, shortened: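 Mice carrying the transplanted tumor received test compound or vehicle. Survival was recorded in each group, and the value is the treated-group measurement divided by that of the vehicle-treated control group.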

[1] = dose: 100.0 mg/kg/injection, schedule: Q01DX009 (ip), vehicle: saline with Tween-80
[2] = dose: 100.0 mg/kg/injection, schedule: Q04DX003 (ip), vehicle: saline with Tween-80
[3] = dose: 200.0 mg/kg/injection, schedule: Q01DX009 (ip), vehicle: saline with Tween-80
[4] = dose: 200.0 mg/kg/injection, schedule: Q04DX003 (ip), vehicle: saline with Tween-80
[5] = dose: 400.0 mg/kg/injection, schedule: Q01DX009 (ip), vehicle: saline with Tween-80
[6] = dose: 400.0 mg/kg/injection, schedule: Q04DX003 (ip), vehicle: saline with Tween-80
[7] = dose: 6.25 mg/kg/injection, schedule: Q01DX009 (ip), vehicle: saline with Tween-80
[8] = dose: 12.5 mg/kg/injection, schedule: Q01DX009 (ip), vehicle: saline with Tween-80

Measured: T/C

COC(=O)CC(=O)c1ccc(OC(C)C)cc1
inactive: [1] 100 % of control | [2] 100 % of control | [3] 100 % of control | [4] 95 % of control | [5] 100 % of control | [6] 100 % of control

CC(=O)OC(C[N+](=O)[O-])C(Cl)(Cl)Cl (stereo not given)
inactive: [7] 104 % of control | [8] 109 % of control | dose: 25.0 mg/kg/injection, schedule: Q01DX009 (ip), vehicle: saline with Tween-80 100 % of control

CCCCCCCCCCCC(=O)OCCN(C=O)C[n+]1ccccc1
inactive: dose: 25.0 mg/kg/injection, schedule: Q04DX002 (ip), vehicle: saline 98 % of control | dose: 50.0 mg/kg/injection, schedule: Q04DX002 (ip), vehicle: saline 96 % of control | dose: 100.0 mg/kg/injection, schedule: Q04DX002 (ip), vehicle: saline 91 % of control

O=C(O)C(=O)O.O=C(O)C(=O)O.O=C(O)C(=O)O.[Ru]
inactive: dose: 12.5 mg/kg/injection, schedule: Q04DX003 (ip), vehicle: water 110 % of control and 87 % of control

CC(C)=CCC/C(C)=C/CC/C(C)=C/CC/C=C(\C)CC/C=C(\C)CCC[N+](C)(C)[O-]
inactive: dose: 60.0 mg/kg/injection, schedule: Q01DX005 (ip), vehicle: saline 101 % of control | dose: 120.0 mg/kg/injection, schedule: Q01DX005 (ip), vehicle: saline 101 % of control | dose: 240.0 mg/kg/injection, schedule: Q01DX005 (ip), vehicle: saline 99 % of control

O=c1c(I)cn(CC(O)CO)c(=O)n1CC(O)CO (stereo not given)
inactive: dose: 50.0 mg/kg/injection, schedule: Q01DX005 (ip), vehicle: Klucel (hydroxypropylcellulose) (HPC) 95 % of control | dose: 100.0 mg/kg/injection, schedule: Q01DX005 (ip), vehicle: Klucel (hydroxypropylcellulose) (HPC) 100 % of control | dose: 200.0 mg/kg/injection, schedule: Q01DX005 (ip), vehicle: Klucel (hydroxypropylcellulose) (HPC) 86 % of control

CCCCCCCCCCCOCC(=O)O
inactive: dose: 50.0 mg/kg/injection, schedule: Q01DX009 (ip), vehicle: Klucel (hydroxypropylcellulose) (HPC) 98 % of control | dose: 100.0 mg/kg/injection, schedule: Q01DX009 (ip), vehicle: Klucel (hydroxypropylcellulose) (HPC) 92 % of control

COc1cc(OC)c2c(=O)c3cc(OC)c(OC)cc3oc2c1
inactive: dose: 8.3 mg/kg/injection, schedule: Q01DX009 (ip), vehicle: Klucel (hydroxypropylcellulose) (HPC) 98 % of control | dose: 16.5 mg/kg/injection, schedule: Q01DX009 (ip), vehicle: Klucel (hydroxypropylcellulose) (HPC) 117 % of control | dose: 33.0 mg/kg/injection, schedule: Q01DX009 (ip), vehicle: Klucel (hydroxypropylcellulose) (HPC) 107 % of control | dose: 66.0 mg/kg/injection, schedule: Q01DX009 (ip), vehicle: Klucel (hydroxypropylcellulose) (HPC) 107 % of control

CCc1ccc2c(c1)C(=O)c1c(c(-c3ccccc3)c3ccccc3c1-c1ccccc1)C2=O
inactive: dose: 1.5 mg/kg/injection, schedule: Q01DX005 (ip), vehicle: saline with Tween-80 98 % of control | dose: 3.0 mg/kg/injection, schedule: Q01DX005 (ip), vehicle: saline with Tween-80 95 % of control | dose: 6.0 mg/kg/injection, schedule: Q01DX005 (ip), vehicle: saline with Tween-80 90 % of control | dose: 100.0 mg/kg/injection, schedule: Q01DX005 (ip), vehicle: saline with Tween-80 92 % of control | dose: 200.0 mg/kg/injection, schedule: Q01DX005 (ip), vehicle: saline with Tween-80 92 % of control

C[Si](C)(C)CN1CCCC1
inactive: dose: 50.0 mg/kg/injection, schedule: Q01DX005 (ip), vehicle: saline 108 % of control | dose: 100.0 mg/kg/injection, schedule: Q01DX005 (ip), vehicle: saline 101 % of control

CCOC(=O)C(Cc1ccccc1)NO (stereo not given)
inactive: [7] 98 % of control | [8] 100 % of control

Ic1ncnc2c1ncn2C1CCCCO1 (stereo not given)
inactive: [1] 95 % of control | dose: 100.0 mg/kg/injection, schedule: Q01DX009 (ip), vehicle: saline 95 % of control | [2] 100 % of control | [3] 100 % of control | dose: 200.0 mg/kg/injection, schedule: Q01DX009 (ip), vehicle: saline 104 % of control | [4] 91 % of control | [5] 90 % of control | [6] 95 % of control

CC1(C)CC(NC(=O)c2ccccc2)C(=O)O1 (stereo not given)
inactive: dose: 50.0 mg/kg/injection, schedule: Q01DX009 (ip), vehicle: saline with Tween-80 99 % of control | [1] 100 % of control | [3] 98 % of control
